Active and inactive are the calls of the source. The rule behind the calls is not given here.
Tested on: CCRIS mutagenicity, Ames/micronucleus/aberration tests
Test: CCRIS mutagenicity studies
[1] = Test System: AMES SALMONELLA TYPHIMURIUM, Strain/Indicator: TA98, Metabolic Activation: NONE, Method: PREINCUBATION
[2] = Test System: AMES SALMONELLA TYPHIMURIUM, Strain/Indicator: TA100, Metabolic Activation: NONE, Method: PREINCUBATION
[3] = Test System: AMES SALMONELLA TYPHIMURIUM, Strain/Indicator: TA1535, Metabolic Activation: NONE, Method: PREINCUBATION

CCCCCCCCCCCCCCCCCC(=O)NCCCC[C@@H](NC(=O)CC[C@@H](NC(=O)[C@H](C)NC(=O)[C@@H](C)O[C@H]1[C@H](O)[C@@H](CO)OC(O)[C@@H]1NC(C)=O)C(N)=O)C(=O)O (stereo not given in full)
mutagenic call [1]: inactive; negative | mutagenic call (Test System: AMES SALMONELLA TYPHIMURIUM, Strain/Indicator: TA98, Metabolic Activation: RAT, LIVER, S-9, KC-500, Method: PREINCUBATION): inactive; negative | mutagenic call [2]: inactive; negative | mutagenic call (Test System: AMES SALMONELLA TYPHIMURIUM, Strain/Indicator: TA100, Metabolic Activation: RAT, LIVER, S-9, KC-500, Method: PREINCUBATION): inactive; negative | mutagenic call [3]: inactive; negative | mutagenic call (Test System: AMES SALMONELLA TYPHIMURIUM, Strain/Indicator: TA1535, Metabolic Activation: RAT, LIVER, S-9, KC-500, Method: PREINCUBATION): inactive; negative | mutagenic call (Test System: AMES SALMONELLA TYPHIMURIUM, Strain/Indicator: TA1537, Metabolic Activation: NONE, Method: PREINCUBATION): inactive; negative | mutagenic call (Test System: AMES SALMONELLA TYPHIMURIUM, Strain/Indicator: TA1537, Metabolic Activation: RAT, LIVER, S-9, KC-500, Method: PREINCUBATION): inactive; negative | mutagenic call (Test System: AMES SALMONELLA TYPHIMURIUM, Strain/Indicator: TA1538, Metabolic Activation: NONE, Method: PREINCUBATION): inactive; negative | mutagenic call (Test System: AMES SALMONELLA TYPHIMURIUM, Strain/Indicator: TA1538, Metabolic Activation: RAT, LIVER, S-9, KC-500, Method: PREINCUBATION): inactive; negative | mutagenic call (Test System: E. COLI, Strain/Indicator: WP2 UVRA, Metabolic Activation: NONE, Method: PREINCUBATION): inactive; negative | mutagenic call (Test System: E. COLI, Strain/Indicator: WP2 UVRA, Metabolic Activation: RAT, LIVER, S-9, KC-500, Method: PREINCUBATION): inactive; negative

C=C1C(=O)O[C@@H]2C[C@]3(C)[C@@H](CCC(C)=O)[C@@H]3C[C@H]12
mutagenic call (Test System: AMES SALMONELLA TYPHIMURIUM, Strain/Indicator: TA104, Metabolic Activation: NONE, Method: STANDARD PLATE): inactive; negative | mutagenic call (Test System: AMES SALMONELLA TYPHIMURIUM, Strain/Indicator: TA104, Metabolic Activation: RAT, LIVER, S-9, Method: STANDARD PLATE): inactive; negative

CCCCC(CC)COCCC#N (stereo not given)
mutagenic call (Test System: AMES SALMONELLA TYPHIMURIUM, Strain/Indicator: TA97, Metabolic Activation: HAMSTER, LIVER, S-9, AROCLOR 1254 (10%), Method: PREINCUBATION): inactive; negative | mutagenic call (Test System: AMES SALMONELLA TYPHIMURIUM, Strain/Indicator: TA97, Metabolic Activation: HAMSTER, LIVER, S-9, AROCLOR 1254 (30%), Method: PREINCUBATION): inactive; negative | mutagenic call (Test System: AMES SALMONELLA TYPHIMURIUM, Strain/Indicator: TA97, Metabolic Activation: NONE, Method: PREINCUBATION): inactive; negative | mutagenic call (Test System: AMES SALMONELLA TYPHIMURIUM, Strain/Indicator: TA97, Metabolic Activation: RAT, LIVER, S-9, AROCLOR 1254 (10%), Method: PREINCUBATION): inactive; negative | mutagenic call (Test System: AMES SALMONELLA TYPHIMURIUM, Strain/Indicator: TA97, Metabolic Activation: RAT, LIVER, S-9, AROCLOR 1254 (30%), Method: PREINCUBATION): inactive; negative | mutagenic call (Test System: AMES SALMONELLA TYPHIMURIUM, Strain/Indicator: TA98, Metabolic Activation: HAMSTER, LIVER, S-9, AROCLOR 1254 (10%), Method: PREINCUBATION): inactive; negative | mutagenic call (Test System: AMES SALMONELLA TYPHIMURIUM, Strain/Indicator: TA98, Metabolic Activation: HAMSTER, LIVER, S-9, AROCLOR 1254 (30%), Method: PREINCUBATION): inactive; negative | mutagenic call [1]: inactive; negative | mutagenic call (Test System: AMES SALMONELLA TYPHIMURIUM, Strain/Indicator: TA98, Metabolic Activation: RAT, LIVER, S-9, AROCLOR 1254 (10%), Method: PREINCUBATION): inactive; negative | mutagenic call (Test System: AMES SALMONELLA TYPHIMURIUM, Strain/Indicator: TA98, Metabolic Activation: RAT, LIVER, S-9, AROCLOR 1254 (30%), Method: PREINCUBATION): inactive; negative | mutagenic call (Test System: AMES SALMONELLA TYPHIMURIUM, Strain/Indicator: TA100, Metabolic Activation: HAMSTER, LIVER, S-9, AROCLOR 1254 (10%), Method: PREINCUBATION): inactive; negative | mutagenic call (Test System: AMES SALMONELLA TYPHIMURIUM, Strain/Indicator: TA100, Metabolic Activation: HAMSTER, LIVER, S-9, AROCLOR 1254 (30%), Method: PREINCUBATION): inactive; negative | mutagenic call [2]: inactive; negative | mutagenic call (Test System: AMES SALMONELLA TYPHIMURIUM, Strain/Indicator: TA100, Metabolic Activation: RAT, LIVER, S-9, AROCLOR 1254 (10%), Method: PREINCUBATION): inactive; negative | mutagenic call (Test System: AMES SALMONELLA TYPHIMURIUM, Strain/Indicator: TA100, Metabolic Activation: RAT, LIVER, S-9, AROCLOR 1254 (30%), Method: PREINCUBATION): inactive; negative | mutagenic call (Test System: AMES SALMONELLA TYPHIMURIUM, Strain/Indicator: TA1535, Metabolic Activation: HAMSTER, LIVER, S-9, AROCLOR 1254 (10%), Method: PREINCUBATION): inactive; negative | mutagenic call (Test System: AMES SALMONELLA TYPHIMURIUM, Strain/Indicator: TA1535, Metabolic Activation: HAMSTER, LIVER, S-9, AROCLOR 1254 (30%), Method: PREINCUBATION): inactive; negative | mutagenic call [3]: inactive; negative | mutagenic call (Test System: AMES SALMONELLA TYPHIMURIUM, Strain/Indicator: TA1535, Metabolic Activation: RAT, LIVER, S-9, AROCLOR 1254 (10%), Method: PREINCUBATION): inactive; negative | mutagenic call (Test System: AMES SALMONELLA TYPHIMURIUM, Strain/Indicator: TA1535, Metabolic Activation: RAT, LIVER, S-9, AROCLOR 1254 (30%), Method: PREINCUBATION): inactive; negative

CC(=O)Nc1cc2c(cc1Cl)-c1ccccc1C2
mutagenic call (Test System: AMES SALMONELLA TYPHIMURIUM, Strain/Indicator: TA98, Metabolic Activation: RAT, LIVER, S-9, AROCLOR 1254, Method: STANDARD PLATE): active; positive

COC(=O)[C@@]12Oc3ccc(-c4ccc5c(c4O)C(O)=C4C(=O)C[C@H](C)[C@@H](O)[C@]4(C(=O)OC)O5)c(O)c3C(O)=C1C(=O)C[C@H](C)[C@H]2O
mutagenic call [2]: inactive; negative | mutagenic call (Test System: AMES SALMONELLA TYPHIMURIUM, Strain/Indicator: TA100, Metabolic Activation: RAT, LIVER, S-9, PHENOBARBITAL, Method: PREINCUBATION): inactive; negative

O[C@@H]1[C@H]2O[C@H]2c2c(ccc3cc4c(ccc5ccccc54)nc23)[C@H]1O
mutagenic call [1]: active; positive | mutagenic call [2]: active; positive | mutagenic call (Test System: CHINESE HAMSTER V-79, Strain/Indicator: V-79/8-AZAGUANINE, Metabolic Activation: NONE): active; positive

O=[N+]([O-])c1c2c(cc3ccccc13)C=C[C@@H](O)[C@@H]2O
mutagenic call (Test System: AMES SALMONELLA TYPHIMURIUM, Strain/Indicator: TA98, Metabolic Activation: NONE, Method: STANDARD PLATE): inactive; negative | mutagenic call (Test System: AMES SALMONELLA TYPHIMURIUM, Strain/Indicator: TA98, Metabolic Activation: RAT, LIVER, S-9, Method: STANDARD PLATE): inactive; negative | mutagenic call (Test System: AMES SALMONELLA TYPHIMURIUM, Strain/Indicator: TA100, Metabolic Activation: NONE, Method: STANDARD PLATE): inactive; negative | mutagenic call (Test System: AMES SALMONELLA TYPHIMURIUM, Strain/Indicator: TA100, Metabolic Activation: RAT, LIVER, S-9, Method: STANDARD PLATE): inactive; negative

O=C(N=c1sn(C(=O)c2cccc(Cl)c2)c2ccc([N+](=O)[O-])cc12)c1cccc(Cl)c1
mutagenic call (Test System: AMES SALMONELLA TYPHIMURIUM, Strain/Indicator: TA100, Metabolic Activation: S-9, Method: STANDARD PLATE): active; positive

Reference: PubChem BioAssay AID1259407 (Chemical Carcinogenesis Research Information System (CCRIS), 2018)
